Measured values reported in US7622469B2, “2,4-diamino-1,3,5-triazine derivatives” (Hamari Chemicals, Ltd., priority 2002, dated 2009).
In brackets after ≈: the same amount, converted by molar mass.

Columns and labels:
MRSA 97-115 [1] = test: Antibacterial activity test (MIC); format: cell-based, methicillin-resistant Staphylococcus aureus; settings: Mueller-Hinton Broth, 37° C., 20 to 24 hours
Procedure: (§1) Regarding compounds obtained in respective Working Examples, in order to investigate antibacterial activity, minimal inhibitory concentration (MIC) was determined according to a standard method of Japanese Society of Chemotherapy.
(§2) As a test bacterium, nine kinds of S. aureus 209PJC, MRSA 97-115, MRSA KM 97-53, MRSA KM97-108, VRE 49, E. coli NIHJ JC-2, P. aeruginosa PAO-1, P. aeruginosa No. 12, P. aeruginosa KM97-5 were used and, as a medium, Mueller-Hinton Broth (DIFCO) was used. One platinum loop of a test bacterium was inoculated into 20 ml of a medium, and static culture was carried out at 37° C. for 16 to 20 hours, and then each bacterium species was diluted with a sterilized physiological saline to 10^5/ml, which was used as a test bacterium solution.
(§3) Then, each compound was dissolved in methanol, subjected to ½ stepwise dilution with a medium to prepare a medium for measuring sensitivity, and each 2 ml was dispensed into a test tube. A compound concentration in a medium was adjusted to 100 μg/ml and its 2^n-fold (n=−10 to 1).
(§4) Numerical values in Tables represent MIC expressed in μg/ml unit.

E. coli NIHJ JC-2 [2] = test: Antibacterial activity test (MIC); format: cell-based; settings: Mueller-Hinton Broth, 37° C., 20 to 24 hours
Procedure: as §1, §2, §3, §4

P. aeruginosa PAO-1 [3] = test: Antibacterial activity test (MIC); format: cell-based; settings: Mueller-Hinton Broth, 37° C., 20 to 24 hours
Procedure: as §1, §2, §3, §4

S. aureus 209PJC [4] = test: Antibacterial activity test (MIC); format: cell-based; settings: Mueller-Hinton Broth, 37° C., 20 to 24 hours
Procedure: as §1, §2, §3, §4

E. coli NIHJ JC-2 [5] = test: Bactericidal activity test (MBC, phenol coefficient measuring method); format: cell-based
Procedure: (§5) As a test bacterium, the same bacteria species as those of the antibacterial activity test were used; as a medium to be used, a SCD medium (manufactured by Eiken Chemical Co., Ltd.) was used for pre-culture medium; and a heart infusion bouillon medium (manufactured by Eiken Chemical Co., Ltd.) was used as a medium for growing a live bacterium in a test solution after bactericidal treatment. One platinum loop of a test bacterium was inoculated into 20 ml of a medium, and static culture was carried out at 37° C. for 18 to 20 hours, and the cells were adjusted with a sterilized physiological saline to 1×10^7/ml, which was used as a test bacterium solution.
(§6) Then, a solution of each compound in methanol was subjected to ½ stepwise dilution with sterilized water, each 5 ml was dispensed into a test tube, 0.5 ml of the previously prepared test bacterium solution was added thereto, and the mixture was blended well. After 1 minute, 3 minutes and 5 minutes has passed, 5 μl of the test solution was collected and inoculated into 2 ml of a heart infusion bouillon medium, this was cultured at 37° C. for 40 to 48 hours, and the presence or absence of growth of a bacterium was determined. A test was performed three times, a minimum concentration at which growth of a bacterium was not recognized two or more times was adopted as a minimal bactericidal concentration (MBC value).
(§7) Numerical values in Tables represent MBC expressed in μg/ml unit.

P. aeruginosa PAO-1 [6] = test: as above; format: cell-based
Procedure: as §5, §6, §7

S. aureus 209PJC [7] = test: as above; format: cell-based
Procedure: as §5, §6, §7

MRSA 97-115 [8] = test: as above; format: cell-based, methicillin-resistant Staphylococcus aureus
Procedure: as §5, §6, §7

Row | minimal inhibitory concentration (MIC) (MRSA 97-115 [1]) [µg/mL] | minimal inhibitory concentration (MIC) (E. coli NIHJ JC-2 [2]) [µg/mL] | minimal inhibitory concentration (MIC) (P. aeruginosa PAO-1 [3]) [µg/mL] | minimal inhibitory concentration (MIC) (S. aureus 209PJC [4]) [µg/mL] | Compound | minimal bactericidal concentration (MBC) (E. coli NIHJ JC-2 [5]; 1 min) [µg/mL] | minimal bactericidal concentration (MBC) (E. coli NIHJ JC-2 [5]; 3 min) [µg/mL] | minimal bactericidal concentration (MBC) (E. coli NIHJ JC-2 [5]; 5 min) [µg/mL] | minimal bactericidal concentration (MBC) (P. aeruginosa PAO-1 [6]; 1 min) [µg/mL] | minimal bactericidal concentration (MBC) (P. aeruginosa PAO-1 [6]; 3 min) [µg/mL] | minimal bactericidal concentration (MBC) (P. aeruginosa PAO-1 [6]; 5 min) [µg/mL] | minimal bactericidal concentration (MBC) (S. aureus 209PJC [7]; 1 min) [µg/mL] | minimal bactericidal concentration (MBC) (S. aureus 209PJC [7]; 3 min) [µg/mL] | minimal bactericidal concentration (MBC) (S. aureus 209PJC [7]; 5 min) [µg/mL] | minimal bactericidal concentration (MBC) (MRSA 97-115 [8]; 1 min) [µg/mL] | minimal bactericidal concentration (MBC) (MRSA 97-115 [8]; 3 min) [µg/mL] | minimal bactericidal concentration (MBC) (MRSA 97-115 [8]; 5 min) [µg/mL]
1 | 1.6 | 25 | 25 | 0.8 | CCCCCCCCCCCCCCNC1=NC(C)(C)N=C(N)N1.Cl [compound 72] | 6.3 | 3.1 | 3.1 | 3.1 | 1.6 | 1.6 | 3.1 | 1.6 | 1.6 | 25 | 12.5 | 12.5
2 | 1.6 | 25 | 50 | 0.8 | CC(=O)O.CCCCCCCCNC1=NC(C)(C)N=C(Nc2cnc3ccccc3c2)N1 [compound 82] | 6.3 | 6.3 | 3.1 | 12.5 | 12.5 | 6.3 | 12.5 | 6.3 | 6.3 | 50 | 25 | 25
3 | 0.8 | 12.5 | 25 | 0.4 | Br.CCCCCCCCCNC1=NC(C)(C)N=C(NCc2ccccc2)N1 [compound 49] | 12.5 | 6.3 | 3.1 | 12.5 | 3.1 | 3.1 | 12.5 | 6.3 | 6.3 | 25 | 12.5 | 12.5
4 | 1.6 | 25 | 50 | 0.4 | CCCCCCCCCCCCC1N=C(N)NC(NCCc2ccc(OC)cc2)=N1.Cl (racemic) [15(1)] | 6.3 | 3.1 | 1.6 | 6.3 | 3.1 | 3.1 | 12.5 | 3.1 | 3.1 | 25 | 12.5 | 6.3
5 | 1.6 | 25 | 100 | 0.8 | CCCCCCCCCCC1N=C(N)NC(Nc2ccc(F)c(F)c2F)=N1.Cl (stereo not drawn) [compound 32] |  |  |  |  |  |  |  |  |  |  |  | 
6 | 0.8 | 12.5 | 50 | 0.2 | CCCCCCCCCCNC1=NC(C)(C)N=C(NCc2ccc(O)cc2)N1.Cl [compound 7] |  |  |  |  |  |  |  |  |  |  |  | 
7 | 3.1 | 50 | 50 | 3.1 | CCCCCCCC1N=C(N)N=C(N)N1c1ccc(C(C)(C)C)cc1.Cl (stereo not drawn) [compound 20] |  |  |  |  |  |  |  |  |  |  |  | 
8 | 1.6 | 50 | 50 | 0.8 | CCCCCCCCNC1=NC(C)(C)N(Cc2ccc(Cl)c(Cl)c2)C(N)=N1.Cl [12(2)] |  |  |  |  |  |  |  |  |  |  |  | 
9 | 0.8 | 25 | 25 | 0.4 | CCCCCCCCNC1=NC(C)(C)N=C(NCc2ccc(Cl)c(Cl)c2)N1.Cl [12(1)] |  |  |  |  |  |  |  |  |  |  |  | 
10 | 3.1 | 25 | 50 | 0.8 | CCCCCCCCCCCCNC1=NC(C)(C)N=C(N)N1.O=[N+]([O-])O [compound 75] |  |  |  |  |  |  |  |  |  |  |  | 
11 | 1.6 (≈ 3.34 µM) | >100 | >100 | 0.4 (≈ 0.836 µM) | CCCCCCCCCCCCNC1=NC(C)(C)N=C(NCc2ccc(S(N)(=O)=O)cc2)N1 [compound 80] |  |  |  |  |  |  |  |  |  |  |  | 
12 | 1.6 | 50 | 100 | 0.8 | CC(=O)O.CCCCCCCCCCCCNC1=NC(C)(C)N=C(NCc2ccco2)N1 [compound 79] |  |  |  |  |  |  |  |  |  |  |  | 
13 | 1.6 | 25 | 25 | 0.8 | CC(=O)O.CCCCCCCNC1=NC(C)(C)N=C(NCCCCCC)N1 [compound 70] |  |  |  |  |  |  |  |  |  |  |  | 
14 | 1.6 | 25 | >100 | 1.6 | CCCCCCCCC1N=C(N)NC(Nc2ccc(OC(F)(F)F)cc2)=N1.Cl (stereo not drawn) [compound 27] |  |  |  |  |  |  |  |  |  |  |  | 

Row | Compound | minimal inhibitory concentration (MIC) (MRSA 97-115 [1]) [µg/mL] | minimal inhibitory concentration (MIC) (E. coli NIHJ JC-2 [2]) [µg/mL] | minimal inhibitory concentration (MIC) (P. aeruginosa PAO-1 [3]) [µg/mL] | minimal inhibitory concentration (MIC) (S. aureus 209PJC [4]) [µg/mL] | minimal bactericidal concentration (MBC) (E. coli NIHJ JC-2 [5]; 1 min) [µg/mL] | minimal bactericidal concentration (MBC) (E. coli NIHJ JC-2 [5]; 3 min) [µg/mL] | minimal bactericidal concentration (MBC) (E. coli NIHJ JC-2 [5]; 5 min) [µg/mL] | minimal bactericidal concentration (MBC) (P. aeruginosa PAO-1 [6]; 1 min) [µg/mL] | minimal bactericidal concentration (MBC) (P. aeruginosa PAO-1 [6]; 3 min) [µg/mL] | minimal bactericidal concentration (MBC) (P. aeruginosa PAO-1 [6]; 5 min) [µg/mL] | minimal bactericidal concentration (MBC) (S. aureus 209PJC [7]; 1 min) [µg/mL] | minimal bactericidal concentration (MBC) (S. aureus 209PJC [7]; 3 min) [µg/mL] | minimal bactericidal concentration (MBC) (S. aureus 209PJC [7]; 5 min) [µg/mL] | minimal bactericidal concentration (MBC) (MRSA 97-115 [8]; 1 min) [µg/mL] | minimal bactericidal concentration (MBC) (MRSA 97-115 [8]; 3 min) [µg/mL] | minimal bactericidal concentration (MBC) (MRSA 97-115 [8]; 5 min) [µg/mL]
15 | CCCCCCCCCCNC1=NC(C)(C)N=C(NCc2ccc(OC)cc2)N1.CS(=O)(=O)O [38(2)] | 0.8 | 25 | 100 | 0.4 | 6.3 | 3.1 | 3.1 | 6.3 | 3.1 | 1.6 | 12.5 | 6.3 | 3.1 | 25 | 12.5 | 12.5
16 | CCCCCCCCCCNC1=NC(C)(C)N=C(NCc2ccccc2)N1.CS(=O)(=O)O [compound 2] | 0.8 |  |  | 0.4 | 6.3 | 3.1 | 3.1 | 3.1 | 1.6 | 1.6 | 12.5 | 6.3 | 3.1 | 25 | 12.5 | 6.3
17 | CCCCCCCCCCNC1=NC(C)(C)N=C(NCc2ccccc2)N1.O=C(O)CC(=O)O [41(2)] | 0.8 | 6.3 | 12.5 | 0.4 |  |  |  |  |  |  |  |  |  |  |  | 
